Among the data in US11964973B2 (priority 2019, dated 2024) are IC50 and EC50 values, retold here.

One assay has as its target Human DGKα(9-727) (Homo sapiens (Human), UniProt P23743). The assay is described as follows: biochemical.
Assay [1] deals with human venous whole blood, CD8 positive population (pERK). Kind of assay: DGK human whole blood pERK assay. It counts as cell-based. The method in brief: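 Read-out is the pERK-positive fraction of CD8+ cells measured by flow cytometry. Donor venous blood (heparin) saw compound for one hour at 37° C before a 15-minute anti-CD3 challenge (1 μg/mL final) with cross-linking anti-mouse IgG.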

Another assay has as its target human DGKζ (Homo sapiens (Human), UniProt Q13574). The assay is described as follows: biochemical. It counts as biochemical. The following applies: Table A; liposome (LIPGLO) assay; read-out: DGKζ.
In assay [2] the test system is Human venous whole blood (IFN-γ). Kind of assay: Human whole blood IFN-γ assay. It counts as cell-based. To be noted: human whole blood IFN-γ, read-out: INFg Whole Blood. As to the method: Assay 10: Human Whole Blood IFN-γ Assay
Human venous whole blood (22.5 μL per well), obtained from healthy donors, was pre-treated with compounds for one hour at 37° C. in a humidified 95% air/5% CO2 incubator. The blood was stimulated with 2.5 μL anti-human CD3 and anti-CD28 mAb at a final concentration of 1 μg/mL each for 24 hours at 37° C. IFN-γ in the supernatants was measured using AlphLISA kit (Cat #AL217).

Where [3] appears, read: Table A, liposome (LIPGLO) assay, read-out: DGKα.
The mark [4] stands for this setting: Homo sapiens, CD8 positive, human whole blood pERK, read-out: DGK HWB.
Setting [5] is: liposome (LIPGLO) assay, Table A, read-out: DGKα LIPGLO IC50.
[6] abbreviates: Homo sapiens, CD8 positive, human whole blood, CD8 positive population, anti-CD3 stimulation, top concentration 20 μM, read-out: DGK HWB (human whole blood pERK).

Read-outs that look alike come from different tables or passages of the source.

Sequence of human DGKζ (Q13574 whole entry, looked up): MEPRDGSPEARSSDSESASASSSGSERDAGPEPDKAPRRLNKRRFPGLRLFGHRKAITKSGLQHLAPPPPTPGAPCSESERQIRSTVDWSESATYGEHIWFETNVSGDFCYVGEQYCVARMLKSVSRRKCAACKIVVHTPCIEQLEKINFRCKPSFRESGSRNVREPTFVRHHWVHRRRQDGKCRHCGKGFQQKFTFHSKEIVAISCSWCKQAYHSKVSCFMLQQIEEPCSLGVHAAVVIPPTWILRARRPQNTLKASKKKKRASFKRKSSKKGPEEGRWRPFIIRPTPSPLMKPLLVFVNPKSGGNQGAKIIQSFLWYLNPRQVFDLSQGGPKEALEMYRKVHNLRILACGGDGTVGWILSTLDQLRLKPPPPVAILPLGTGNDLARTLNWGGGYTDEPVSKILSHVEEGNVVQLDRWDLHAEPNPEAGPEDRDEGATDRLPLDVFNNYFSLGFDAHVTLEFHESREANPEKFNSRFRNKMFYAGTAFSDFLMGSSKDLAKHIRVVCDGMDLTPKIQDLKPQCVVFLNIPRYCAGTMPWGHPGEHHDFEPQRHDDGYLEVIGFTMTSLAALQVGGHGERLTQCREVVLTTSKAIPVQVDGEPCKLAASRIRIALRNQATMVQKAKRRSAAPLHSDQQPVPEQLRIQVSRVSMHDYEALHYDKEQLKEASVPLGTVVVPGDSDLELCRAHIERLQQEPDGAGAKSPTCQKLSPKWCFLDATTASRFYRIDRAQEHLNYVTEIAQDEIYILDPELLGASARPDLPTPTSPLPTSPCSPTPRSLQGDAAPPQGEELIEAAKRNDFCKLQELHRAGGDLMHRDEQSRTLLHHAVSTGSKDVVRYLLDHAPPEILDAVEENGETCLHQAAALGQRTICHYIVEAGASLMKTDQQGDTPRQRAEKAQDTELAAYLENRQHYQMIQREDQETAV
Sequence of Human DGKα(9-727) (P23743 whole entry, looked up): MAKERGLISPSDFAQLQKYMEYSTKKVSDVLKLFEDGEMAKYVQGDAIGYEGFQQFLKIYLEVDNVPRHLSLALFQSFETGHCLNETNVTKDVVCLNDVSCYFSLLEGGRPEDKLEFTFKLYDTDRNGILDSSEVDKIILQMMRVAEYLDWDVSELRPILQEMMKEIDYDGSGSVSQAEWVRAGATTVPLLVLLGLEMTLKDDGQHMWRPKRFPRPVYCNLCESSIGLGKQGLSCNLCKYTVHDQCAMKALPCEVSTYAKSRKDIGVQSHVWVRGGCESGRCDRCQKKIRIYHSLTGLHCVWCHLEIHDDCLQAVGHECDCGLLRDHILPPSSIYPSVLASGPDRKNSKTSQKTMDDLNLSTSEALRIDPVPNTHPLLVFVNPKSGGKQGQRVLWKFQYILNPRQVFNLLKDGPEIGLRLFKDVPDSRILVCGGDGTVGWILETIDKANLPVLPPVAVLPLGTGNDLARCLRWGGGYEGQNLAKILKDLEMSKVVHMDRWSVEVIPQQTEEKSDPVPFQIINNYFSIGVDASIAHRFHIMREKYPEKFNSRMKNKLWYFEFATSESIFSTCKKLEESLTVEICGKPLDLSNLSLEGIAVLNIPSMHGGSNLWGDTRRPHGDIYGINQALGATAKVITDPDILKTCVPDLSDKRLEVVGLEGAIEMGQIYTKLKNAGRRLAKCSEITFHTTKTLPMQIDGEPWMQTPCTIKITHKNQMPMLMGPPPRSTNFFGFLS

On to `CC1CN(c2c(C#N)c(=O)n(C)c3ccc(C#N)nc23)CCC1N(C)Cc1ccc(F)cc1` (single isomer, unassigned) [Example 322, 8-(4-((4-Fluorobenzyl)(methyl)amino)-3-methylpiperidin-1-yl)-5-methyl-6-oxo-5,6-dihydro-1,5-naphthyridine-2,7-dicarbonitrile], for which the IC50 on Human DGKα(9-727) (setting [3]) is 6.8 µM; on human DGKζ it was 78 µM. Besides, the EC50 in assay [1] (setting [4]) turned out to be 20 µM.

As for `CC1CN(c2c(C#N)c(=O)n(C)c3ccc(C#N)nc23)CCC1N(C)Cc1ccc(F)cc1` (single isomer, unassigned) [Example 324, 8-(4-((4-Fluorobenzyl)(methyl)amino)-3-methylpiperidin-1-yl)-5-methyl-6-oxo-5,6-dihydro-1,5-naphthyridine-2,7-dicarbonitrile], the IC50 on Human DGKα(9-727) (setting [3]) and at human DGKζ was 130 µM throughout. Also, the EC50 in assay [1] (human whole blood pERK, read-out: DGK HWB) is 20 µM.

On to `CO[C@@H]1CN(c2cc(=O)n(C)c3ccc(C#N)nc23)CC[C@H]1Oc1cccc(C(F)(F)F)c1` (single isomer, unassigned) [Example 261, (±)-trans-8-(3-methoxy-4-(3-(trifluoromethyl)phenoxy)piperidin-1-yl)-5-methyl-6-oxo-5,6-dihydro-1,5-naphthyridine-2-carbonitrile], for which the IC50 at Human DGKα(9-727) (setting [3]) was 0.2 µM; at human DGKζ it was 1.4 µM. Also, in assay [1] (setting [4]), the EC50 stood at 1.5 µM.

As to `Cn1c(=O)nc(N2CC[C@@H](Oc3cccc(C(F)(F)F)c3)[C@H](O)C2)c2nc(C#N)ccc21` (single isomer, unassigned) [Example 274, (+/−)-trans-4-(3-hydroxy-4-(3-(trifluoromethyl)phenoxy)piperidin-1-yl)-1-methyl-2-oxo-1,2-dihydropyrido[3,2-d]pyrimidine-6-carbonitrile], the IC50 on Human DGKα(9-727) (setting [3]) worked out at 14 µM; on human DGKζ it was 15 µM. Besides, the EC50 in assay [2] (Homo sapiens) stood at 8.2 µM.

For the compound `CO[C@H]1CN(c2cc(=O)n(C)c3ccc(C#N)nc23)CC[C@@H]1Oc1ccc(OC(C)C)cn1` (single isomer, unassigned) [Example 270, (±)-trans-8-(4-((5-isopropoxypyridin-2-yl)oxy)-3-methoxypiperidin-1-yl)-5-methyl-6-oxo-5,6-dihydro-1,5-naphthyridine-2-carbonitrile], the figures for the IC50 at Human DGKα(9-727) (setting [3]) and on human DGKζ were 2.4 µM and 12 µM, respectively.

On to `Cn1c(=O)cc(N2CC[C@H](Oc3cccc(C(F)(F)F)c3)[C@@H](O)C2)c2nc(C#N)ccc21` (racemic) [Example 259, (±)-trans-8-(3-hydroxy-4-(3-(trifluoromethyl)phenoxy)piperidin-1-yl)-5-methyl-6-oxo-5,6-dihydro-1,5-naphthyridine-2-carbonitrile], for which the IC50 on Human DGKα(9-727) (setting [3]) turned out to be 1.1 µM; at human DGKζ, 150 µM. In addition, the EC50 in assay [2] (Homo sapiens) came out at 20 µM.

As for `COc1ccc(NC2C[C@H](C)N(c3cc(=O)n(C)c4ccc(C#N)nc34)C[C@H]2C)nc1` (single isomer, unassigned) [Example 281], the IC50 at Human DGKα(9-727) (setting [3]) amounted to 2.7 µM; at human DGKζ it was 2.8 µM. Besides, the EC50 in assay [2] came to 9.8 µM.

With `Cn1c(=O)cc(N2CC[C@H](Oc3cccc(C(F)(F)F)c3)[C@@H](O)C2)c2nc(C#N)ccc21` (racemic) [Example 260, (±)-trans-8-(3-hydroxy-4-(3-(trifluoromethyl)phenoxy)piperidin-1-yl)-5-methyl-6-oxo-5,6-dihydro-1,5-naphthyridine-2-carbonitrile], the IC50 was 1.9 µM on Human DGKα(9-727) (read-out: DGKα) and 140 µM at human DGKζ.

With `Cn1c(=O)nc(N2CC[C@@H](Oc3cccc(C(F)(F)F)c3)[C@H](O)C2)c2nc(Cl)ccc21` (racemic) [Example 272, (+/−)-trans-6-chloro-4-(3-hydroxy-4-(3-(trifluoromethyl)phenoxy)piperidin-1-yl)-1-methylpyrido[3,2-d]pyrimidin-2(1H)-one], the IC50 was 19 µM on Human DGKα(9-727) (setting [3]) and 24 µM on human DGKζ. Besides, the EC50 in assay [2] was 16 µM.

`CCO[C@@H]1CN(c2cc(=O)n(C)c3ccc(C#N)nc23)CC[C@H]1Oc1cccc(C(F)(F)F)c1` [Example 264, 8-((3R,4R)-3-ethoxy-4-(3-(trifluoromethyl)phenoxy)piperidin-1-yl)-5-methyl-6-oxo-5,6-dihydro-1,5-naphthyridine-2-carbonitrile]: the results for the IC50 on Human DGKα(9-727) (setting [3]) and on human DGKζ were 4 µM and 17 µM, respectively. Besides, in assay [2], the EC50 is 6.5 µM.

In the case of `COc1ccc(NC2C[C@H](C)N(c3cc(=O)n(C)c4ccc(C#N)nc34)C[C@H]2C)nc1` (single isomer, unassigned) [Example 280], the values for the IC50 on Human DGKα(9-727) (setting [3]) and on human DGKζ were 0.38 µM and 170 µM, respectively. In addition, the EC50 in assay [2] is 20 µM.

On to `CC(C)Oc1ccc(O[C@H]2CCN(c3cc(=O)n(C)c4ccc(C#N)nc34)C[C@@H]2O)nc1` (single isomer, unassigned) [Example 268, (±)-trans-8-(3-hydroxy-4-((5-isopropoxypyridin-2-yl)oxy)piperidin-1-yl)-5-methyl-6-oxo-5,6-dihydro-1,5-naphthyridine-2-carbonitrile], for which the IC50 was found to be 1.3 µM at Human DGKα(9-727) (setting [3]) and 17 µM at human DGKζ.

In the case of `CC[C@@H]1CN(c2cc(=O)n(C)c3ccc(C#N)nc23)[C@@H](C)C[C@@H]1Oc1cccc(C(F)(F)F)c1` [Example 308, 8-((2S,4S,5R)-5-ethyl-2-methyl-4-(3-(trifluoromethyl)phenoxy)piperidin-1-yl)-5-methyl-6-oxo-5,6-dihydro-1,5-naphthyridine-2-carbonitrile], the values for the IC50 on Human DGKα(9-727) (setting [3]) and on human DGKζ were 4.3 µM and 3.1 µM, respectively.

Turning to `C[C@H]1CN(c2cc(=O)n(C)c3ccc(C#N)nc23)[C@@H](C)CC1N(C)c1ccc(C(F)(F)F)cc1` (single isomer, unassigned) [Example 318], the IC50 on Human DGKα(9-727) (setting [3]) is 130 µM. Also, the EC50 in assay [1] (setting [4]) was 20 µM.

`CCO[C@H]1CN(c2cc(=O)n(C)c3ccc(C#N)nc23)CC[C@@H]1OCc1ccc(OC(C)C)cn1` [Example 383, 8-((3S,4S)-3-ethoxy-4-((5-isopropoxypyridin-2-yl)methoxy)piperidin-1-yl)-5-methyl-6-oxo-5,6-dihydro-1,5-naphthyridine-2-carbonitrile]: the IC50 on Human DGKα(9-727) (setting [5]) is 6.1 µM. Further, the EC50 in assay [1] (setting [6]) worked out at 20 µM.

Take `CO[C@@H]1CN(c2nc(=O)n(C)c3ccc(C#N)nc23)CC[C@H]1Oc1cccc(C(F)(F)F)c1` (single isomer, unassigned) [Example 276]: the IC50 was determined as 1 µM at Human DGKα(9-727) (setting [3]) and 2 µM at human DGKζ.

Turning to `CO[C@@H]1CN(c2cc(=O)n(C)c3ccc(C#N)nc23)CC[C@H]1Oc1cccc(C(F)(F)F)c1` (single isomer, unassigned) [Example 262, (±)-trans-8-(3-methoxy-4-(3-(trifluoromethyl)phenoxy)piperidin-1-yl)-5-methyl-6-oxo-5,6-dihydro-1,5-naphthyridine-2-carbonitrile], the IC50 on Human DGKα(9-727) (setting [3]) worked out at 3.7 µM; on human DGKζ, 15 µM.

On to `CC(C)Oc1ccc(O[C@H]2CCN(c3cc(=O)n(C)c4ccc(C#N)nc34)C[C@@H]2O)nc1` (single isomer, unassigned) [Example 267, (±)-trans-8-(3-hydroxy-4-((5-isopropoxypyridin-2-yl)oxy)piperidin-1-yl)-5-methyl-6-oxo-5,6-dihydro-1,5-naphthyridine-2-carbonitrile], for which the IC50 amounted to 0.26 µM at Human DGKα(9-727) (setting [3]) and 10 µM at human DGKζ. The EC50 in assay [2] (Homo sapiens) is 17 µM.

In the case of `Cn1c(=O)nc(N2CC[C@@H](Oc3cccc(C(F)(F)F)c3)[C@H](O)C2)c2nc(Cl)ccc21` (racemic) [Example 271, (+/−)-trans-6-chloro-4-(3-hydroxy-4-(3-(trifluoromethyl)phenoxy)piperidin-1-yl)-1-methylpyrido[3,2-d]pyrimidin-2(1H)-one], the IC50 is 10 µM at Human DGKα(9-727) (setting [3]) and 28 µM on human DGKζ. The EC50 in assay [2] (Homo sapiens) came to 20 µM.

As to `CC1CN(c2cc(=O)n(C)c3ccc(C#N)nc23)CCC1N(C)C(=O)c1ccc(F)cc1` (single isomer, unassigned) [Example 287, N-(1-(6-Cyano-1-methyl-2-oxo-1,2-dihydro-1,5-naphthyridin-4-yl)-3-methylpiperidin-4-yl)-4-fluoro-N-methylbenzamide], the IC50 turned out to be 3.2 µM at Human DGKα(9-727) (read-out: DGKα) and 7.4 µM on human DGKζ.

Take `C[C@H]1CN(c2cc(=O)n(C)c3ccc(C#N)nc23)[C@@H](C)CC1N(C)c1ccc(C(F)(F)F)cc1` (single isomer, unassigned) [Example 319]: the IC50 on Human DGKα(9-727) (setting [3]) is 61 µM; at human DGKζ, 130 µM.

Consider `CCO[C@H]1CN(c2cc(=O)n(C)c3ccc(C#N)nc23)CC[C@@H]1OCc1ccc(OC(C)C)cn1` (single isomer, unassigned) [Example 384], for which, on Human DGKα(9-727) (setting [5]), the IC50 was determined as 0.82 µM. The EC50 in assay [1] (setting [6]) stood at 4 µM.

Take `CO[C@@H]1CN(c2nc(=O)n(C)c3ccc(C#N)nc23)CC[C@H]1Oc1cccc(C(F)(F)F)c1` (single isomer, unassigned) [Example 277]: the IC50 was 4.9 µM at Human DGKα(9-727) (setting [3]) and 3.9 µM on human DGKζ.
